In the data set the test system is CCRIS mutagenicity, Ames/micronucleus/aberration tests. Briefly: CCRIS mutagenicity studies.
The mark [1] stands for this setting: Test System: AMES SALMONELLA TYPHIMURIUM, Strain/Indicator: TA98, Metabolic Activation: NONE, Method: PREINCUBATION
Where [2] appears, read: Test System: AMES SALMONELLA TYPHIMURIUM, Strain/Indicator: TA100, Metabolic Activation: NONE, Method: PREINCUBATION
The mark [3] stands for this setting: Test System: AMES SALMONELLA TYPHIMURIUM, Strain/Indicator: TA1535, Metabolic Activation: NONE, Method: PREINCUBATION
[4] abbreviates: Test System: AMES SALMONELLA TYPHIMURIUM, Strain/Indicator: TA1537, Metabolic Activation: NONE, Method: PREINCUBATION
[5] abbreviates: Test System: AMES SALMONELLA TYPHIMURIUM, Strain/Indicator: TA1538, Metabolic Activation: NONE, Method: PREINCUBATION
Where [6] appears, read: Test System: AMES SALMONELLA TYPHIMURIUM, Strain/Indicator: TA100, Metabolic Activation: NONE, Method: STANDARD PLATE.

The text below walks through data of PubChem BioAssay AID1259407 (Chemical Carcinogenesis Research Information System (CCRIS), 2018).

The structures appear in SMILES notation. Active and inactive are the calls of the source. How the calls were made is not given here.

In the case of `Nc1ccc(S(=O)(=O)O)c2ccccc12`, the mutagenic call reads like this: under setting [1], “inactive; negative”; (Test System: AMES SALMONELLA TYPHIMURIUM, Strain/Indicator: TA98, Metabolic Activation: RAT LIVER S-9, PHENOBARBITAL AND BETA-NAPHTHOFLAVONE, Method: PREINCUBATION) “inactive; negative”; under setting [2], “inactive; negative”; (Test System: AMES SALMONELLA TYPHIMURIUM, Strain/Indicator: TA100, Metabolic Activation: RAT LIVER S-9, PHENOBARBITAL AND BETA-NAPHTHOFLAVONE, Method: PREINCUBATION) “inactive; negative”; under setting [3], “inactive; negative”; (Test System: AMES SALMONELLA TYPHIMURIUM, Strain/Indicator: TA1535, Metabolic Activation: RAT LIVER S-9, PHENOBARBITAL AND BETA-NAPHTHOFLAVONE, Method: PREINCUBATION) “inactive; negative”. The mutagenic call was “inactive; negative” under setting [4]; “inactive; negative” (Test System: AMES SALMONELLA TYPHIMURIUM, Strain/Indicator: TA1537, Metabolic Activation: RAT LIVER S-9, PHENOBARBITAL AND BETA-NAPHTHOFLAVONE, Method: PREINCUBATION); “inactive; negative” under setting [5]; “inactive; negative” (Test System: AMES SALMONELLA TYPHIMURIUM, Strain/Indicator: TA1538, Metabolic Activation: RAT LIVER S-9, PHENOBARBITAL AND BETA-NAPHTHOFLAVONE, Method: PREINCUBATION); “inactive; negative” (Test System: E.COLI, Strain/Indicator: WP2UVRA, Metabolic Activation: NONE, Method: PREINCUBATION); “inactive; negative” (Test System: E.COLI, Strain/Indicator: WP2UVRA, Metabolic Activation: RAT LIVER S-9, PHENOBARBITAL AND BETA-NAPHTHOFLAVONE, Method: PREINCUBATION).
With `Nc1ccccc1[N+](=O)[O-]`, the mutagenic call by setting is: (End Point: IN VITRO CHROMOSOMAL ABERRATIONS, Test System: CHL CELLS, Metabolic Activation: RAT, LIVER, S-9, SODIUM PHENOBARBITAL AND 5,6-BENZOFLAVONE) “active; positive (structural changes)”; (End Point: IN VITRO MICRONUCLEUS, Test System: CHL/IU CELLS, Metabolic Activation: NONE) “inactive; negative”; (Test System: AMES SALMONELLA TYPHIMURIUM, Strain/Indicator: TA97, Metabolic Activation: NONE) “inactive; negative”; (Test System: AMES SALMONELLA TYPHIMURIUM, Strain/Indicator: TA97, Metabolic Activation: RAT, LIVER, S-9, AROCLOR 1254) “inactive; negative”; (Test System: AMES SALMONELLA TYPHIMURIUM, Strain/Indicator: TA98, Metabolic Activation: HAMSTER, LIVER, S-9, AROCLOR 1254, FLAVIN MONONUCLEOTIDE, Method: PREINCUBATION) “active; positive”; (Test System: AMES SALMONELLA TYPHIMURIUM, Strain/Indicator: TA98, Metabolic Activation: HAMSTER, LIVER, S-9, AROCLOR 1254, Method: PREINCUBATION) “inactive; negative”. The mutagenic call (Test System: AMES SALMONELLA TYPHIMURIUM, Strain/Indicator: TA98, Metabolic Activation: NONE) was “inactive; negative”; the mutagenic call under setting [1] is “inactive; negative”; the mutagenic call (Test System: AMES SALMONELLA TYPHIMURIUM, Strain/Indicator: TA98, Metabolic Activation: NONE, Method: STANDARD PLATE) is “inactive; negative”; the mutagenic call (Test System: AMES SALMONELLA TYPHIMURIUM, Strain/Indicator: TA98, Metabolic Activation: RAT, LIVER, S-9, AROCLOR 1254) was “inactive; negative”; the mutagenic call (Test System: AMES SALMONELLA TYPHIMURIUM, Strain/Indicator: TA98, Metabolic Activation: RAT, LIVER, S-9, AROCLOR 1254, FLAVIN MONONUCLEOTIDE, Method: PREINCUBATION) is “inactive; negative”; the mutagenic call (Test System: AMES SALMONELLA TYPHIMURIUM, Strain/Indicator: TA98, Metabolic Activation: RAT, LIVER, S-9, AROCLOR 1254, Method: STANDARD PLATE) is “inactive; negative”. Also, the mutagenic call is, setting by setting: (Test System: AMES SALMONELLA TYPHIMURIUM, Strain/Indicator: TA98, Metabolic Activation: RAT, LIVER, S-9, KANECHLOR 500, Method: PREINCUBATION) “inactive; negative”; (Test System: AMES SALMONELLA TYPHIMURIUM, Strain/Indicator: TA98, Method: PREINCUBATION) “inactive; negative”; (Test System: AMES SALMONELLA TYPHIMURIUM, Strain/Indicator: TA100, Metabolic Activation: NONE) “inactive; negative”; under setting [2], “inactive; negative”; under setting [6], “inactive; negative”; (Test System: AMES SALMONELLA TYPHIMURIUM, Strain/Indicator: TA100, Metabolic Activation: RAT, LIVER, S-9, AROCLOR 1254) “inactive; negative”. The mutagenic call by setting is: (Test System: AMES SALMONELLA TYPHIMURIUM, Strain/Indicator: TA100, Metabolic Activation: RAT, LIVER, S-9, AROCLOR 1254, Method: STANDARD PLATE) “inactive; negative”; (Test System: AMES SALMONELLA TYPHIMURIUM, Strain/Indicator: TA100, Metabolic Activation: RAT, LIVER, S-9, KANECHLOR 500, Method: PREINCUBATION) “inactive; negative”; (Test System: AMES SALMONELLA TYPHIMURIUM, Strain/Indicator: TA100, Method: PREINCUBATION) “inactive; negative”; (Test System: AMES SALMONELLA TYPHIMURIUM, Strain/Indicator: TA102, Metabolic Activation: NONE) “inactive; negative”; (Test System: AMES SALMONELLA TYPHIMURIUM, Strain/Indicator: TA102, Metabolic Activation: RAT, LIVER, S-9, AROCLOR 1254) “inactive; negative”; under setting [3], “inactive; negative”. Also, the mutagenic call is “inactive; negative” (Test System: AMES SALMONELLA TYPHIMURIUM, Strain/Indicator: TA1535, Metabolic Activation: NONE, Method: STANDARD PLATE); “inactive; negative” (Test System: AMES SALMONELLA TYPHIMURIUM, Strain/Indicator: TA1535, Metabolic Activation: RAT, LIVER, S-9, AROCLOR 1254, Method: STANDARD PLATE); “inactive; negative” (Test System: AMES SALMONELLA TYPHIMURIUM, Strain/Indicator: TA1535, Method: PREINCUBATION); “inactive; negative” under setting [4]; “inactive; negative” (Test System: AMES SALMONELLA TYPHIMURIUM, Strain/Indicator: TA1537, Metabolic Activation: NONE, Method: STANDARD PLATE); “inactive; negative” (Test System: AMES SALMONELLA TYPHIMURIUM, Strain/Indicator: TA1537, Metabolic Activation: RAT, LIVER, S-9, AROCLOR 1254, Method: STANDARD PLATE). Also, the mutagenic call (Test System: AMES SALMONELLA TYPHIMURIUM, Strain/Indicator: TA1537, Method: PREINCUBATION) is “inactive; negative”; the mutagenic call under setting [5] is “inactive; negative”; the mutagenic call (Test System: AMES SALMONELLA TYPHIMURIUM, Strain/Indicator: TA1538, Metabolic Activation: NONE, Method: STANDARD PLATE) was “inactive; negative”; the mutagenic call (Test System: AMES SALMONELLA TYPHIMURIUM, Strain/Indicator: TA1538, Metabolic Activation: RAT, LIVER, S-9, AROCLOR 1254, Method: STANDARD PLATE) was “inactive; negative”; the mutagenic call (Test System: AMES SALMONELLA TYPHIMURIUM, Strain/Indicator: TA1538, Method: PREINCUBATION) was “inactive; negative”; the mutagenic call (Test System: UDS RODENT HEPATOCYTES, Strain/Indicator: THY INCORP (NON-S-PHASE), Metabolic Activation: NONE, Method: AUTORADIOGRAPHY) is “inactive; negative”.
As to `Nc1c2cc([N+](=O)[O-])ccc2nc2ccc([N+](=O)[O-])cc12`, under “Test System: AMES SALMONELLA TYPHIMURIUM, Strain/Indicator: TA1537, Metabolic Activation: NONE”, the mutagenic call is “active; positive”.
Take `Nc1ccc2ncsc2c1`: the mutagenic call runs as follows: under setting [2], “inactive; negative”; (Test System: AMES SALMONELLA TYPHIMURIUM, Strain/Indicator: TA100, Metabolic Activation: RAT LIVER S-9, PHENOBARBITAL AND 5,6-BENZOFLAVONE, Method: PREINCUBATION) “inactive; negative”; (Test System: AMES SALMONELLA TYPHIMURIUM, Strain/Indicator: YG1029, Metabolic Activation: NONE, Method: PREINCUBATION) “inactive; negative”; (Test System: AMES SALMONELLA TYPHIMURIUM, Strain/Indicator: YG1029, Metabolic Activation: RAT LIVER S-9, PHENOBARBITAL AND 5,6-BENZOFLAVONE, Method: PREINCUBATION) “active; positive”.
Take `O=C1OCC(CBr)=C1Cl`: the mutagenic call under setting [6] is “active; positive”.
On to `Cc1ccc2c(c1)c(=NC(=O)c1ccccc1[N+](=O)[O-])sn2C(=O)c1ccccc1[N+](=O)[O-]`, for which, where the note is “Test System: AMES SALMONELLA TYPHIMURIUM, Strain/Indicator: TA100, Metabolic Activation: S-9, Method: STANDARD PLATE”, the mutagenic call is “inactive; negative”.
